Patent US20110105496A1, “Methods For The Treatment Of Myosin Heavy Chain-Mediated Conditions Using 4,7-Dihydrothieno[2,3-B]Pyridine Compounds” (priority 2005, published 2011)

Test system: alpha-MyHC
Experiment: alpha-MyHC cytoblot process in neonatal rat ventricular myocytes (NRVM)
Assay type: cell-based
Details: NRVM, 72 hours; for EC50: alpha-MyHC cytoblot; for Max Plateau: maximum of dose response fit
Method: In vitro activity of each compound is measured using the alpha-MyHC cytoblot process. Briefly, neonatal rat ventricular myocytes (NRVM) at 120,000 cells/ml in HyQ DME/High modified culture media supplemented with 10% charcoal/dextran treated FBS, 0.1% Nutridoma-SP, 1:100 MEM non-essential amino acids, 1:50 MEM amino acids solution w/o L-Gln, 1 mM sodium pyruvate and 1:100 P/S/G, are plated on gelatin coated sterile 384-well plates (Costar 3712) at 6,000 cells per well. Cells are incubated overnight at 37° C. in 5% CO2 100% humidity. Following overnight growth the media is changed to HyQ DME/High modified culture media supplemented with 0.3% Nutridoma-SP, 1:100 MEM non-essential amino acids, 1:50 MEM amino acids solution w/o L-Gln, 1 mM sodium pyruvate and 1:100 P/S/G. Cells are then dosed with serial dilutions of each compound in DMSO. Each concentration in the dose range is dosed in quadruplicate. Dosing is done in such a way so that the final DMSO concentration was 0.44%. Compound dilutions are 3-fold with the final top concentration of 10 uM. […] Following dosing, the cells are incubated for 72 hours at 37° C. in 5% CO2 100% humidity and then processed with the cytoblot method. Briefly, cell media is aspirated and cell monolayers washed with PBS and fixed with 100% methanol for 30 minutes. Fixed cells are then blocked with PBS, 0.05% Tween-20, 1% BSA, for 1 hour. Following blocking, cells are incubated with primary alpha-MyHC-specific antibody antibody (1:30 dilution of BA-G5 hybridoma conditioned media, ATCC HB276) for 1 hour. Following incubation with the primary antibody, cells are washed with PBS, 0.05% Tween-20, 1% BSA and incubated with secondary antibody (1:1000 dilution, goat-anti-mouse HRP, Southern Biotech, 1031-05) for 1 hour. Following incubation with the secondary antibody, wells are washed and incubated in SuperSignal, West Dura HRP-luminescence substrate for 30 seconds under shaking at room temperature. Luminescence is measured using a Packard Fusion plate reader. […] RLU values are converted into per cent fraction of low control and dose responses are fitted to a sigmoidal 4-parameter equation (XLFit, IDBS) where the EC50 and Max Plateau values were extracted. […] Max Plateau is the […] maximum value determined by the dose response fit.

[1] = Table 1, low control = vehicle only

Row | Compound | EC50 (Table 1, mean ± spread) [µM] | EC50 (Table 2 (esters)) [µM] | Max Plateau [1] | Max Plateau (Table 2 (esters))
1 | CCC(=O)C1=C(CC)Nc2sc(C(=O)c3ccccc3)c(N)c2C1c1ccccc1F (stereo not shown) [Compound 78] | 0.00677 | – | 269.77 ± 35.30 per cent fraction of low control | –
2 | CCC(=O)C1=C(CC)Nc2sc(C(=O)c3ccc(Cl)c(Cl)c3)c(N)c2C1c1c(F)cccc1Cl (stereo not shown) [Compound 40] | 0.0144 | – | 244.87 ± 7.92 per cent fraction of low control | –
3 | CCCC(=O)C1=C(CCC)Nc2sc(C(=O)c3ccc(Cl)cc3Cl)c(N)c2C1c1ccccc1F (stereo not shown) [Compound 91] | 0.198 | – | 143.39 ± 20.69 per cent fraction of low control | –
4 | CC(=O)C1=C(C)Nc2sc(C(=O)c3ccc(Cl)c(Cl)c3)c(N)c2C1c1ccccc1Cl (stereo not shown) [Compound 13] | 0.0825 | – | – | –
5 | COC(=O)C1=C(C(C)C)Nc2sc(C(=O)c3ccc(Cl)c(Cl)c3)c(N)c2C1c1ccccc1 (stereo not shown) [Compound 116] | – | 0.07 | – | 107.57 per cent fraction of low control
6 | CC(=O)C1=C(C)Nc2sc(C(=O)c3ccc(Cl)c(Cl)c3)c(N)c2C1c1ccc(O)cc1 (stereo not shown) [Compound 23] | 0.339 | – | 277.53 ± 33.46 per cent fraction of low control | –
7 | CC(=O)C1=C(C)Nc2sc(C(=O)c3ccc(Cl)c(Cl)c3)c(N)c2C1c1ccc(Br)cc1 (stereo not shown) [Compound 22] | 2.07 | – | 174.35 ± 23.39 per cent fraction of low control | –
8 | CCC(=O)C1=C(CC)Nc2sc(C(=O)c3ccc4c(c3)OCO4)c(N)c2C1c1ccccc1F (stereo not shown) [Compound 71] | 0.0575 | – | 223.30 ± 32.84 per cent fraction of low control | –
9 | CCC(=O)C1=C(CC)Nc2sc(C(=O)c3ccc(Cl)c(Cl)c3)c(N)c2C1c1c(F)cccc1F (stereo not shown) [Compound 63] | 0.0208 | – | 230.07 ± 45.59 per cent fraction of low control | –
10 | CCC(=O)C1=C(CC)Nc2sc(C(=O)c3ccc(Cl)c(Cl)c3)c(N)c2C1c1cccnc1 (stereo not shown) [Compound 75] | 0.0613 | – | 226.71 ± 40.80 per cent fraction of low control | –
11 | CCC(=O)C1=C(CC)Nc2sc(C(=O)c3ccc(Cl)c(Cl)c3)c(N)c2C1c1ccccc1Cl (stereo not shown) [Compound 38] | 0.0161 | – | 288.93 ± 52.81 per cent fraction of low control | –
12 | CC(=O)C1=C(C)Nc2sc(C(=O)c3cccnc3)c(N)c2C1c1ccccc1 (stereo not shown) [Compound 5] | 2.33 | – | 286.43 ± 42.04 per cent fraction of low control | –
13 | CC(=O)C1=C(C)Nc2sc(C(=O)c3cccc([N+](=O)[O-])c3)c(N)c2C1c1ccc(C(=O)O)cc1 (stereo not shown) [Compound 9] | – | – | 100.00 ± 0.00 per cent fraction of low control | –
14 | CCC(=O)C1=C(CC)Nc2sc(C(=O)c3ccc(Cl)c(Cl)c3)c(N)c2C1c1ccc2ccccc2c1 (stereo not shown) [Compound 88] | – | – | 113.45 ± 11.92 per cent fraction of low control | –
15 | CCC(=O)C1=C(CC)Nc2sc(C(=O)c3ccc(Cl)c(Cl)c3)c(N)c2C1c1ccc(O)cc1Cl (stereo not shown) [Compound 83] | 0.000249 | – | 274.88 ± 44.56 per cent fraction of low control | –
16 | CCC(=O)C1=C(CC)Nc2sc(C(=O)c3ccc(F)c(F)c3)c(N)c2C1c1ccnc(F)c1 (stereo not shown) [Compound 102] | 0.00418 | – | 269.88 ± 36.90 per cent fraction of low control | –
17 | CC(=O)C1=C(C)Nc2sc(C(=O)c3ccc(Cl)c(Cl)c3)c(N)c2C1c1cc(F)cc(F)c1 (stereo not shown) [Compound 55] | 0.0452 | – | 229.93 ± 37.33 per cent fraction of low control | –
18 | CCOC(=O)C1=C(CC)Nc2sc(C(=O)c3cccnc3)c(N)c2C1c1ccncc1F (stereo not shown) [Compound 174, 3-amino-6-ethyl-4-(3 fluoro-pyridin-4-yl)-2-(pyridine-3-carbonyl)-4,7 dihydro-thieno[2,3-b]pyridine-5-carboxylic acid ethyl ester] | – | – | – | 263.57 per cent fraction of low control
19 | CCC(=O)C1=C(CC)Nc2sc(C(=O)c3cc(C(C)(C)C)c(O)c(C(C)(C)C)c3)c(N)c2C1c1ccccc1 (stereo not shown) [Compound 90] | – | – | 300.00 ± 0.00 per cent fraction of low control | –
20 | CCC(=O)C1=C(CC)Nc2sc(C(=O)c3ccc(Cl)c(Cl)c3)c(N)c2C1c1cc(F)cc(F)c1 (stereo not shown) [Compound 100] | 0.00573 | – | 262.04 ± 31.65 per cent fraction of low control | –
21 | CC(=O)C1=C(C)Nc2sc(C(=O)c3ccccc3)c(N)c2C1c1ccc(Cl)cc1 (stereo not shown) [Compound 21] | 0.583 | – | 193.20 ± 49.26 per cent fraction of low control | –
22 | CCC(=O)C1=C(CC)Nc2sc(C(=O)c3cccc([N+](=O)[O-])c3)c(N)c2C1c1ccccc1 (stereo not shown) [Compound 96] | 0.0171 | – | 254.87 ± 72.67 per cent fraction of low control | –
23 | CCC(=O)C1=C(CC)Nc2sc(C(=O)c3cccc(Cl)c3)c(N)c2C1c1ccccc1 (stereo not shown) [Compound 66] | 0.00494 | – | 306.19 ± 54.21 per cent fraction of low control | –
24 | CCCC(=O)C1=C(CCC)Nc2sc(C(=O)c3ccc(Cl)c(Cl)c3)c(N)c2C1c1ccccc1F (stereo not shown) [Compound 87] | 0.217 | – | 187.66 ± 12.24 per cent fraction of low control | –
25 | COC(=O)c1cccc(C(=O)c2sc3c(c2N)C(c2ccccc2)C(C(C)=O)=C(C)N3)c1 (stereo not shown) [Compound 62] | 0.361 | – | 279.31 ± 67.94 per cent fraction of low control | –
26 | CC(=O)C1=C(C)Nc2sc(C(=O)c3ccccc3)c(N)c2C1c1ccccc1F (stereo not shown) [Compound 24] | 0.273 | – | 260.35 ± 43.53 per cent fraction of low control | –
27 | CCC(=O)C1=C(CC)Nc2sc(C(=O)c3cccc(F)c3)c(N)c2C1c1ccccc1 (stereo not shown) [Compound 49] | 0.0144 | – | 299.18 ± 42.31 per cent fraction of low control | –
28 | CCC(=O)C1=C(CC)Nc2sc(C(=O)c3ccc(Cl)cc3Cl)c(N)c2C1c1ccccc1 (stereo not shown) [Compound 70] | 0.0517 | – | 191.97 ± 13.09 per cent fraction of low control | –

Second part, led by results:

Row | EC50 (Table 1, mean ± spread) [µM] | EC50 (Table 2 (esters)) [µM] | Compound | Max Plateau [1] | Max Plateau (Table 2 (esters))
29 | – | 0.0156 | CCC1=C(C(=O)OC)C(c2c(F)cccc2F)c2c(sc(C(=O)c3ccc(Cl)c(Cl)c3)c2N)N1 (stereo not shown) [Compound 137] | – | 213.90 per cent fraction of low control
30 | – | 0.000828 | CCC1=C(C(=O)OC)C(c2cc(F)cc(F)c2)c2c(sc(C(=O)c3ccc(Cl)c(Cl)c3)c2N)N1 (stereo not shown) [Compound 171] | – | 296.79 per cent fraction of low control
31 | – | 0.0111 | CCOC(=O)C1=C(CC)Nc2sc(C(=O)c3cc(C(F)(F)F)cc(C(F)(F)F)c3)c(N)c2C1c1ccccc1 (stereo not shown) [Compound 149] | – | 207.18 per cent fraction of low control
32 | – | 0.0633 | COC(=O)C1=C(C2CC2)Nc2sc(C(=O)c3ccc(Cl)c(Cl)c3)c(N)c2C1c1ccccc1F (stereo not shown) [Compound 144] | – | 187.17 per cent fraction of low control
33 | – | 0.0153 | CCC1=C(C(=O)OC)C(c2ccc(F)cc2F)c2c(sc(C(=O)c3ccc(Cl)c(Cl)c3)c2N)N1 (stereo not shown) [Compound 153] | – | 234.66 per cent fraction of low control
34 | – | 0.21 | CC1=C(C(=O)OCCN2CCOCC2)C(c2ccccc2)c2c(sc(C(=O)c3ccc(Cl)c(Cl)c3)c2N)N1 (stereo not shown) [Compound 126] | – | 193.06 ± 11.02 per cent fraction of low control
35 | – | 0.000478 | CCC1=C(C(=O)OC)C(c2cc(F)cc(F)c2)c2c(sc(C(=O)c3ccccc3)c2N)N1 (stereo not shown) [Compound 172] | – | 304.08 per cent fraction of low control
36 | – | 0.00189 | CCC1=C(C(=O)OC)C(c2cc(F)cc(F)c2)c2c(sc(C(=O)c3ccc(F)c(F)c3)c2N)N1 (stereo not shown) [Compound 170] | – | 262.16 per cent fraction of low control
37 | – | 0.00495 | CCOC(=O)C1=C(CC)Nc2sc(C(=O)c3ccc(Cl)c(Cl)c3)c(N)c2C1c1ccncc1Cl (stereo not shown) [Compound 169] | – | 261.04 per cent fraction of low control
38 | – | 0.123 | CCOC(=O)C1=C(CC)Nc2sc(C(=O)c3ccc(Cl)cc3Cl)c(N)c2C1c1ccccc1 (stereo not shown) [Compound 145] | – | 224.48 per cent fraction of low control
39 | – | 0.0632 | CCC1=C(C(=O)OCC(C)OC)C(c2ccccc2F)c2c(sc(C(=O)c3cccc(C#N)c3)c2N)N1 (stereo not shown) [Compound 180] | – | 279.68 ± 65.32 per cent fraction of low control
40 | – | 0.000183 | CCC1=C(C(=O)OC)C(c2ccnc(F)c2)c2c(sc(C(=O)c3cccc(Cl)c3)c2N)N1 (racemic) [Compound 175] | – | 289.91 per cent fraction of low control
41 | – | 4.58 | CC1=C(C(=O)OCC2CCCN2C)C(c2ccccc2)c2c(sc(C(=O)c3ccc(Cl)c(Cl)c3)c2N)N1 (stereo not shown) [Compound 129] | – | 150.08 ± 9.89 per cent fraction of low control
42 | – | 0.0715 | COC(=O)C1=C(C2CC2)Nc2sc(C(=O)c3ccc(Cl)c(Cl)c3)c(N)c2C1c1ccccc1 (stereo not shown) [Compound 133] | – | 180.24 per cent fraction of low control
